This passage reports RBA and ED50 results from ChEMBL document CHEMBL1135923, “Conceptually new low-calcemic oxime analogues of the hormone 1 alpha,25-dihydroxyvitamin D(3): synthesis and biological testing” (J Med Chem, 2002).

The target in assay [1] is T1, Vitamin D3 receptor (Rattus norvegicus) (UniProt P13053).
T1 sequence (whole entry): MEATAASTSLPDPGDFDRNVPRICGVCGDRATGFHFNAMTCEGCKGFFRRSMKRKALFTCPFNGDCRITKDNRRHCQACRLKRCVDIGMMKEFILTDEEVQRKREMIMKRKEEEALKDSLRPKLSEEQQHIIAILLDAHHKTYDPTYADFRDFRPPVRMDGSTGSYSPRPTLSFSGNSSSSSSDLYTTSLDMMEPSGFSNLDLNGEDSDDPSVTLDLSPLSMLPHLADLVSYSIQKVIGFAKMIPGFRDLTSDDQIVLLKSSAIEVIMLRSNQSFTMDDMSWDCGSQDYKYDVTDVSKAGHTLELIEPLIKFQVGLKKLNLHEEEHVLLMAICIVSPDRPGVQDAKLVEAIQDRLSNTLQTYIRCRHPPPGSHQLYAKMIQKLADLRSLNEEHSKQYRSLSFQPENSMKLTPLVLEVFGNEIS
The assay can be described thus: Percent relative binding affinity for vitamin D receptor VDR. It is filed as functional.

In assay [2] the target is T1, Vitamin D3 receptor (Rattus norvegicus). Nature of the assay: In vitro vitamin D receptor-mediated transcriptional activity in rat osteosarcoma ROS 17/2.8 cells.

Structures are written as SMILES.

In turn, `C=C1/C(=C\C=C2/CCC[C@]3(C)C([C@H](C)CCCC(=O)C(C)(C)C)=CC[C@@H]23)C[C@H](O)C[C@H]1O` showed an RBA in assay [1] of 35%. The ED50 in assay [2] amounted to 0.1 nM.
For the compound `C=C1/C(=C\C=C2/CCC[C@]3(C)C([C@H](C)CCC/C(=N\O)C(C)(C)C)=CC[C@@H]23)C[C@H](O)C[C@H]1O`, the RBA in assay [1] came to 3%. For the same compound, in assay [2], the ED50 was 10 nM.
`C=C1/C(=C\C=C2/CCC[C@]3(C)C([C@H](C)CCC/C(=N\OC)C(C)(C)C)=CC[C@@H]23)C[C@H](O)C[C@H]1O`: the RBA in assay [1] is less than 3%. This compound also had an ED50 in assay [2] of 2 nM.
As to `C=C1/C(=C\C=C2/CCC[C@]3(C)[C@@H]([C@H](C)CCCC(C)(C)O)CC[C@@H]23)C[C@@H](O)C[C@@H]1O`, in assay [2], the ED50 worked out at 0.4 nM.
